Reference: patent publication US10317393B2, “Alkynyl sugar analogs for labeling and visualization of glycoconjugates in cells” (Academia Sinica, priority 2007, dated 2019)

Legend:
cell extracts = assay: Labeling and detection of glycoconjugates in cell extracts (SDS/PAGE, Western blot); type: cell-based; details: 200 micromolar Fuc or 25 micromolar ManNAc analogs, 3 days
Excerpt: Because the herein disclosed labeling system enables the identification of cellular glycoconjugates, it can also serve well in glyco-proteomic applications aimed at discovering unknown glycosylated targets for diagnostic and therapeutic purposes. […] Soluble lysate fractions are labeled with biotin probe 6, fluorogenic probe 7, or a standard azido-derivatized rhodamine probe used in proteomics before separating proteins by SDS/PAGE. […] Positive fluorescent signal was also detected in alkynyl positive protein lysate when labeled with fluorogenic 3-azido-7-hydroxycoumarin 7 and rhodamine probes (FIG. 6B and FIG. 11). […] Moreover, further processing, including a streptavidin/avidin enrichment or gel slice purification, will allow for comparative identification by proteomic mass spectrometry techniques of unknown glycoconjugates expressed at different cell status, for instance, un-differentiated verses differentiated cells, or normal verses cancer cells.
Cells were seeded at 3×10^6/8 ml per 10-cm dish and treated with control and test sugars (200 micromolar Fuc 3 vs. alkynyl derivatized Fuc 1, or 25 micromolar ManNAc 5 vs. alkynyl derivatized ManNAc 2) in growth medium at 37° C. […] Signal was developed with SuperSignal Chemiluminescent Substrate and detected by exposure to x-ray film. […] Rhodamine gels were analyzed.

PC-3 cells = assay: Lectin staining of tagged cells, flow cytometry; type: cell-based; details: 200 micromolar, three days
Experimental: FIGS. 9A and 9B show lectin staining of alkynyl-derivatized Fuc 1-tagged PC-3 prostate cancer cells. Cells were treated with 200 micromolar derivatized alkynyl-derivatized Fuc 1, or Fuc 3, or left untreated. After three days, cells were labeled with biotin-conjugated AAL/fluorescein-conjugated streptavidin shown in FIG. 9A or fluorescein-conjugated UEA-I shown in FIG. 9B. Fluorescent signal was detected by flow cytometry. AAL was used to detect α-1,6- or α-1,3-linked Fuc; UEA-I was used to detect α-1,2-linked Fuc. Filled histogram: untreated cells without lectin stain; open histogram c: untreated cells stained with lectin; open histogram b: control Fuc 3-treated cells stained with lectin; open histogram a: alkynyl-derivatized Fuc 1-treated cells stained with lectin. AAL, Aleuria Aurantia Lectin; UEA-1, Ulex Europaeus Agglutinin I.
PC-3 cells were grown in RPMI 1640 (Invitrogen) supplemented with 10% FCS and peracetylated alkynyl Fuc 1 or control Fuc 3 for 3 days at 37° C. Cells were then harvested, washed with 1% FCS/PBS, resuspended (5×10^5 cells) in 100 μl of staining solution (1 μg/ml lectin conjugates in 1% FCS/PBS). Cells were then incubated on ice for 30 min and washed twice with 1% FCS/PBS. […] Data were acquired by FACSCalibur, and were analyzed by CellQuestPro software (BD Biosciences).

Hep3B cells = assay: Pulse-chase time-lapse microscopy of fucosylated glycans; type: cell-based, human; details: 30 minute pulse, biotin/streptavidin-FITC
Experimental: Additional cellular structures are visualized using alternative labeling systems (e.g., WGA lectin used to visualize Golgi apparatus, and Hoechst used to visualize nucleus).
Pulse-chased MOE experiments entail growing cells of interest to log-phase levels and then exposing them to the sugar analogs in the growth medium, as prescribed by standard MOE, but only for a 30 minute pulse, before replenishing with fresh medium devoid of sugars. Post sugar-pulse, the cells are grown for various lengths of time before analysis.
Cells of interest may be grown to log phase and then presented with various derivatized sugars for a limited period of time; for example, 30 minutes. After the limited period of time, the cells are no longer presented with the various sugars. The cells with glycoconjugates incorporating various tagged sugars may then be visualized over time through secondary detection and/or microscopy in relation to various intracellular and intercellular structures, in order to collect data on the trafficking and relative location of tagged and labeled glycoconjugates.

With “1,2,3,4-tetraacetyl alkynyl fucose [alkynyl Fuc 1]” the “labeling signal in proteins by Western blot or fluorescence” value (cell extracts) was “specific biotin-labeling signals”, the “binding of Ulex Europaeus Agglutinin I (UEA-1) to treated cells versus control” value (PC-3 cells) was “significantly lower avidity” and the “binding of aleuria aurantia lectin to treated cells versus control” value (PC-3 cells) was “significantly lower avidity”. For the same substance, the “signal for fucosylated glycans co-localized with Golgi marker after pulse” value (Hep3B cells) was “co-localized yellow signal as early as 2 h”.
